Results: article PMC6968511 (Journal of Enzyme Inhibition and Medicinal Chemistry, 2019)

Assays:
[1] = test system: HT-29 (human colorectral cancer); assay: MTT cytotoxicity assay; format: cell-based; conditions: tested up to 100 μM (data not shown)
Solubility in water = format: physicochemical
[2] = test system: HCEC (human corneal epithelial cell); assay: MTT cytotoxicity assay; format: cell-based; conditions: MTT, tested up to 100 μM (data not shown)
MTT cytotoxicity assay = format: cell-based, human; conditions: human, HCEC (human corneal epithelial) cells
[3] = test system: HepG2 (human liver carcinoma); assay: MTT cytotoxicity assay; format: cell-based; conditions: tested up to 100 μM (data not shown)
hypertensive rabbits = assay: Hypertensive rabbit IOP lowering study; format: in vivo; conditions: topical
[4] = test system: H9C2 (normal, rat myocytes); assay: MTT cytotoxicity assay; format: cell-based; conditions: tested up to 100 μM (data not shown)
[5] = one drop (50 μL) of 1% solution (BRZ 1% suspension)

| Solubility (Solubility in water) | SMILES | toxicity to HT-29 cells [1] | toxicity to HCEC cells [2] | viability at 96 h, 1 % (MTT cytotoxicity assay) | toxicity to HepG2 cells [3] | return to basal IOP values (hypertensive rabbits; 1% suspension) | maximal IOP lowering (hypertensive rabbits; [5]) | time of maximal IOP lowering effect post-administration (hypertensive rabbits; [5]) | toxicity to H9C2 cells [4] | viability at 96 h, 2 % (MTT cytotoxicity assay) |
| --- | --- | --- | --- | --- | --- | --- | --- | --- | --- | --- |
| 0.05% | CCN[C@H]1CN(CCCOC)S(=O)(=O)c2sc(S(N)(=O)=O)cc21 [BRZ, brinzolamide] | did not display any appreciable toxicity | did not display any appreciable toxicity | 40% | did not display any appreciable toxicity | 3 h | around 5 mm Hg | 1 h | did not display any appreciable toxicity | – |
| 0.67% | CCN[C@H]1C[C@H](C)S(=O)(=O)c2sc(S(N)(=O)=O)cc21 [DZA, dorzolamide] | – | – | – | – | – | – | – | – | – |
| 0.21% | CC(=O)Nc1nnc(S(N)(=O)=O)s1 [AAZ, acetazolamide] | did not display any appreciable toxicity | did not display any appreciable toxicity | 80% | did not display any appreciable toxicity | – | – | – | did not display any appreciable toxicity | 10% |
